Target: T1, CuCDH (Cerrena unicolor, UniProt S5R9V1)
T1 construct: native secreted intact flavocytochrome (heme b plus FAD domains) purified from culture supernatant; signal peptide (18 aa) removed; precursor 771 aa
Assay: UV-visible spectrum of purified enzyme
Assay type: binding
Conditions: 100 mM sodium acetate, pH 4.5; oxidized and lactose-reduced

T1 sequence (S5R9V1 19-771): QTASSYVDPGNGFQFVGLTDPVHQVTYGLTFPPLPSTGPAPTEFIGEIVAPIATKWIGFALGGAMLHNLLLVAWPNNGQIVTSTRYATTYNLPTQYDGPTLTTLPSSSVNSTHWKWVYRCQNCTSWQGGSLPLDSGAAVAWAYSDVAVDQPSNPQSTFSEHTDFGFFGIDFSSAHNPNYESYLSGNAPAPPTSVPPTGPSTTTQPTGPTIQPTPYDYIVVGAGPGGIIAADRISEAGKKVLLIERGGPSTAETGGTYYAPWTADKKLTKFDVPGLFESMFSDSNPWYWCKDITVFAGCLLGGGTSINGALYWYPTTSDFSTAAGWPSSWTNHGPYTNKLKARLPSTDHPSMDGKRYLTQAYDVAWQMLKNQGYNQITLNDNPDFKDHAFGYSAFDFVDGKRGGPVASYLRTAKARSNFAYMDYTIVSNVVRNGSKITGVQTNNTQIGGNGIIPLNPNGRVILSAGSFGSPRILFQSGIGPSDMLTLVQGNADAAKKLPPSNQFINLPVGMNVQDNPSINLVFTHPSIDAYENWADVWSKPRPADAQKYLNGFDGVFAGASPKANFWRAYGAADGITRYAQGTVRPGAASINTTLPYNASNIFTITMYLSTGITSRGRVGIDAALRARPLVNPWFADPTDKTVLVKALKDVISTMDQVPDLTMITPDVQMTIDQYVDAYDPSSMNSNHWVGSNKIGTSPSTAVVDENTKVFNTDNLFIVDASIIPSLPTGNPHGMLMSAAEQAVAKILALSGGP

SMILES: Cc1cc2nc3c(=O)[nH]c(=O)nc-3n(C[C@H](O)[C@H](O)[C@H](O)COP(=O)(O)OP(=O)(O)OC[C@H]3O[C@@H](n4cnc5c(N)ncnc54)[C@H](O)[C@@H]3O)c2cc1C [FAD]
- UV-visible spectrum of purified enzyme: indicated the presence of heme and flavin cofactors in the protein
